In PMC6627553, “Cardiac Rhythm and Molecular Docking Studies of Ion Channel Ligands with Cardiotoxicity in Zebrafish” (Cells, 2019):
Entries after “also recorded” stand apart in the source; their conditions may differ. Where a name gives a salt, the structure may show the parent alone. Read-outs that look alike come from different tables or passages of the source.

How the values were obtained:
[1] = system: zebrafish embryos aged 72 hpf; assay: Chronology method: heart beat recorded at 5 min intervals over 30 min; conditions: 10 μM; for Cardiac phenotype by time chronology method: 10 sec recordings at 5 min intervals over 30 min, methylcellulose mounted; for Atrium and ventricle rhythmicity pattern after 30 min incubation: compared to control
Protocol: (§1) Stock concentrations for each compound in the library are 10 mM with 100 µL volume. The compounds are diluted with distilled water to make working solutions at 10 µM. For drug treatment, 20 µM of the compound stock was dropped onto the fish mounted with the same volume (around 50 µL) of 3% methylcellulose for a final working concentration of 10 µM. The heart beats from three zebrafish larvae were used for the first round of screening. […] The heart beats from five zebrafish larvae for each compound were recorded for 10 sec at 5 min intervals over a period of 30 min.
(§2) After drug administration, we video recorded the heart beat for 10 sec at 5 min intervals, over a period of 30 min.

[2] = system: zebrafish embryos aged 72 hpf; assay: End-point screen of ion channel ligand library for cardiac rhythm (ImageJ-based); conditions: 10 μM, 30 min incubation
Protocol: Seventy-two hpf larvae were used for this study.
The compounds are diluted with distilled water to make working solutions at 10 µM. For drug treatment, 20 µM of the compound stock was dropped onto the fish mounted with the same volume (around 50 µL) of 3% methylcellulose for a final working concentration of 10 µM. The heart beats from three zebrafish larvae were used for the first round of screening. […] The heart beats from five zebrafish larvae for each compound were recorded for 10 sec at 5 min intervals over a period of 30 min.
For the cardiac rhythm assay, we mounted zebrafish embryos aged at 72 hpf with 3% methylcellulose to reduce their movement, and later applied chemicals from an ion channel ligand library (containing 70 compounds) at 10 μM to measure the changes in cardiac rhythm according to our previous ImageJ-based method [25]. In order to prevent the potential side effects of anesthesia on heart rate or rhythmicity, we used methylcellulose to mount zebrafish larvae for videotaping.
Initially, we used an image-based end-point method to screen the potential effects of an ion channel ligand library on heart beat rhythm alterations. […] In order to screen a potential compound with high cardiotoxicity at a low dose, we performed chemical screening at 10 μM as a starting point. […] A heartbeat that exceeds these ranges is considered abnormal.

[3] = system: zebrafish embryos aged 72 hpf; assay: Dose response experiment for lowest effective dose (LOED), time chronology method; conditions: 1 µM and 5 µM
Protocol: Three different doses, 1, 5 and 10 μM, of the tested compounds were given to zebrafish embryos aged 72 hpf, and the heart beat rate and rhythmicity were recorded for comparison by the time chronology method.
(§3) Five zebrafish larvae aged at 72 h post-fertilization (hpf) were used in this assay.

[4] = system: rats; conditions: cited from earlier work
[5] = system: zebrafish embryos aged 72 hpf; conditions: in vivo
Protocol: as §1, §2

[6] = system: hERG channel; conditions: cited from earlier work
[7] = system: cardiac K+ channels; conditions: cited from earlier work
[8] = system: zebrafish larvae aged 72 hpf; assay: Washout experiment for heart rate and rhythmicity; conditions: washout for 30 min and 1 h
Protocol: as §3

| Structure (SMILES) | Cardiac phenotype by time chronology method [1] | Atrium and ventricle rhythmicity pattern after 30 min incubation [1] | Heart rhythm phenotype in first step screening (end-point screen) [2] | also measured |
| --- | --- | --- | --- | --- |
| O=C1NCN(c2ccccc2)C12CCN(CCCC(c1ccc(F)cc1)c1ccc(F)cc1)CC2 [compound 1377, Fluspirilene] | arrhythmia from 5 min onwards | arrhythmic, with one peak of the ventricle being followed by two of the atrium | ventricular fibrillation or total heart stop; also recorded: irregular heart rhythmicity; also recorded: total heart stop | Cardiac phenotype by time chronology method ([1]; listed as fluspirilene): arrhythmia occurred from 5 min onwards and became more severe over time; Heart rhythm phenotype in first step screening (end-point screen) ([2]; listed as fluspirilene): heart completely stopped |
| COC(=O)c1c(C)[nH]c(C)c1C(=O)c1ccccc1Cc1ccccc1 [compound 1346, FPL-64176] | arrhythmia | arrhythmic beating | ventricular fibrillation or total heart stop; also recorded: irregular heart rhythmicity | Heart rhythm phenotype in first step screening (end-point screen) ([2]; listed as FPL-64176): heart completely stopped; Effect on cardiac rhythmicity at low concentration [3]: did not change; Effect on heart beat rate at low concentration [3]: did not change the heart beat rate |
| CNc1ccc2oc(C[C@H]3O[C@@]4(CC[C@H]3C)O[C@H]([C@H](C)C(=O)c3ccc[nH]3)[C@H](C)C[C@H]4C)nc2c1C(=O)O [compound 1333, Antibiotic A-23187] | – | 1:1 rhythm, but the peak was more compact | ventricular fibrillation or total heart stop; also recorded: irregular heart rhythmicity | Increase of heart beat [4]: up to 50%; Heart rhythm phenotype in first step screening (end-point screen) ([2]; listed as Antibiotic A-23187): ventricular fibrillation |
| O=c1[nH]c2ccccc2n1C1CCN(CCCC(c2ccc(F)cc2)c2ccc(F)cc2)CC1 [compound 1360, Pimozide] | atrioventricular block occurred, subsequently becoming more severe over time | arrhythmic, with one peak in the ventricle being followed by two in the atrium | ventricular fibrillation or total heart stop; also recorded: irregular heart rhythmicity | Cardiac phenotype by time chronology method [5]: atrioventricular block from 10 min onwards; Concentration giving significant inhibition of hERG channel currents ([6]; as low as): 3 nM; IC50 ([6]; read-out: IC50 of hERG channel currents): 18 nM; Reported cardiac adverse effect [7]: acquired long QT syndrome and ventricle arrhythmia; Reversibility of cardiotoxicity effect [7]: poorly reversible; Restoration of heart rate after washout [8]: could not be fully restored, even after 1 h of washout treatment; Reversal of arrhythmic effect after washout [8]: unable to fully reverse the arrhythmic effect |
| Fc1ccc(C(c2ccc(F)cc2)N2CCN(C/C=C/c3ccccc3)CC2)cc1 [compound 1345, Flunarizine hydrochloride] | slowing of heart rate as well as arrhythmia after incubation for 25 and 30 min; also recorded: slowing of the heart as well as arrhythmia after incubation for 25 and 30 min | arryhtmia was not shown in the pattern; however, the peak was less compact compared to the control | slight slowing of the heartbeat (bradycardia); also recorded: irregular heart rhythmicity | – |
